A short description of data set [1]: adsorption of biocides onto CuO and ZnO nanoparticles in o-xylene, non-adsorbed biocide by HPLC-UV. The settings on record: biocide 50 mM. The data set is classed as physicochemical. As for the experimental part: To 50 ml of the solvent o-xylene, the biocide was added at a total concentration of 50 mM. Nano-particles (Sigma-Aldrich Sweden AB, Stockholm, Sweden) were then added in relevant concentrations according to the test protocol and after each addition the concentration of non-adsorbed Medetomidine (Orion Pharma, Helsinki, Finland) was measured with a standard HPLC-UV technique. The UV-absorbance maximum of Medetomidine was, from the literature, found to be 220 nm. Prior to the HPLC analysis the UV-absorbance maximum was investigated in order to verify the value given from the literature using a UV-spectrometer (GBC 920 UV/visible spectrometer, Scientific Equipments Ltd., Victoria, Australia).
The samples were analysed on a HPLC-UV system consisting of a Merck-Hitachi L-6200 pump (Merck-Hitachi, Darmstadt, Germany), a Supelco Discovery® (Sigma-Aldrich Sweden AB, Stockholm, Sweden) C18 (25 cm×4.6 mm, 5 m) column fitted with a prefilter (0.5 μm) and a Spectra-Physics Spectra 100 UV (Spectra-Physics Inc, Irvine Calif., USA) operating at 220 nm. The mobile phase was MilliQ-water:Acetonitrile (0.1% TFA v/v (mobile phase A): 0.1% TFA v/v (mobile phase B)) run over a gradient (6% B for two min then an increase up to 60% B in 15 min, a further increase up to 100% B in 3 min and then isocratic for 3 min before returning to the starting values in 2 min) at a flow rate of […]. The peak separation was monitored by UV (220 nm). Manual injections of 100 micro-liter were made and the data was collected and integrated using the Millenium software (version 3.20, 1999)(Waters Inc, Milford Mass., USA).

For data set [2] the following is noted: CuO (5 μm) instead of nanoparticle, o-xylene. The method, then: The different nanoparticles used (ZnO, CuO, Al2O3, MgO, TiO2, CO3O4) were bought from Sigma (Sigma-Aldrich Sweden AB, Stockholm, Sweden) and used without further purification. 50 ml of o-xylene was added to a beaker to which 50 mM of Medetomidine (Orion Pharma, Helsinki, Finland) was added. Nanoparticles were then added and after each addition the amount of free Medetomidine was measured with HPLC-UV (as in example 1 above).

A further data set has as its system barnacles. The settings on record: reported pharmacological compounds; cited from earlier work.

Entries after “also recorded” stand apart in the source; their conditions may differ.

On to `Cc1cccc(C(C)c2cnc[nH]2)c1C` (racemic) [Medetomidine, (S,R)-4(5)-[1-(2,3-dimethylphenyl)ethyl]-1H-imidazole], for which the “adsorption of antifouling agent onto nanoparticles” value in data set [1] is on record as “Large fractions of Medetomidine are adsorbed already at low particle concentrations; also recorded: best adsorption”. Moreover, in data set [2], the “Medetomidine adsorption onto micrometer sized particle” value is “negligible”. Besides, the “effect on attachment / settlement of barnacles” value in the data set on barnacles is reported as “efficient inhibitor”.

For the compound `CC(C)C[C@H]1C(=O)N2CCC[C@H]2[C@]2(O)O[C@](NC(=O)[C@@H]3C=C4c5cccc6[nH]c(Br)c(c56)C[C@H]4N(C)C3)(C(C)C)C(=O)N12` [(+)-Bromocriptine], in the data set with barnacles, the “effect on attachment / settlement of barnacles” value is recorded as “inhibitory properties”.

Take `O=C(c1ccc(F)cc1)C1CCN(CCn2c(=O)[nH]c3ccccc3c2=O)CC1` [Ketanserin]: in the data set on barnacles, the “effect on attachment / settlement of barnacles” value is “inhibitory properties”.

For the compound `CCCN1CCc2cccc3c2[C@H]1Cc1ccc(O)c(O)c1-3` [R (−)-NPA], in the data set on barnacles, the “effect on attachment / settlement of barnacles” value is reported as “inhibitory properties”.

In the case of `CCCCCCCCn1sc(Cl)c(Cl)c1=O` [SeaNine, 4,5-dichloro-2-n-octyl-3(2H)-isothiazolone], the “adsorption of antifouling agent onto nanoparticles” value in data set [1] is “exhibited adsorption”.

Turning to `CN(C)C(=O)Nc1ccc(Cl)c(Cl)c1` [diuron, 3-(3,4-dichlorophenyl)-1,1-dimethylurea], the “adsorption of antifouling agent onto nanoparticles” value in data set [1] is given as “exhibited adsorption”.

`CSc1nc(NC2CC2)nc(NC(C)(C)C)n1` [igarol, 2-methylthio-4-tert-butylamino-6-cyclopropylamino-s-triziane]: the “adsorption of antifouling agent onto nanoparticles” value in data set [1] is recorded as “exhibited adsorption”.
